The target in assay [1] is T1, 53BP1^TT-CC (E1549C/E1567C) (Homo sapiens, UniProt Q12888, E1549C/E1567C).
T1 construct: The tandem Tudor domain of 53BP1 (53BP1^TT, residues 1481–1603) was purified as previously described; made in house
In words: 1H-15N HSQC NMR of 15N-labeled 53BP1TT-CC with UNC3474, with and without DTT. The format is binding. The procedure: Fig. 4 Engineering of a disulfide-crosslinked 53BP1^TT homodimer that binds UNC3474. a Sedimentation velocity analysis of 53BP1^TT-CC (20 μM) in the presence and absence of 10 mM DTT. b Crystal structure of 53BP1^TT-CC (blue and orange) showing the two disulfide bridges overlaid to the crystal structure of 53BP1^TT-UNC3474 (UNC3474 omitted) in gray. c Effects of adding 2 mM DTT and UNC3474 on the ^1H-^15N HSQC spectrum of ^15N-labeled 53BP1^TT-CC (1:1 UNC3474:53BP1^TT-CC molar ratio).
All NMR data were collected at 25 °C on a 700 MHz Bruker Avance III spectrometer equipped with a cryoprobe. Data were processed and analyzed with NMRPipe[54] and NMRViewJ[55],[56].

In assay [2] the test system is 53BP1^FFR-PN IRIF in U2OS cells. Put plainly: 53BP1FFR ionizing radiation-induced foci (IRIF) formation, immunofluorescence, PN mutant. Format: cell-based, Homo Sapiens. As to conditions: 1 Gy X-ray, different concentrations of UNC3474. The text has this:
(§1) The foci-forming region (FFR; residues 1220–1711) of wild-type 53BP1 and mutants E1549P/D1550N (53BP1^FFR-PN) and E1549C/E1567C (53BP1^FFR-CC) were inserted into the retroviral vector POZ. The primers used to introduce the E1549P/D1550N mutations are: […] (forward) and […] (reverse). The primers used to introduce the E1549C/E1567C mutations are: […] (forward) and […] (reverse). The 53BP1^FFR constructs were stably expressed at a moderate level in U2OS cells. To probe the effect of UNC3474 on 53BP1^FFR IRIF formation, U2OS cells were grown on glass coverslips, pre-incubated for 1 h with various concentrations of UNC3474 and exposed to 1 Gy of X-ray radiation. After 1 h, the cells were fixed in 4% formaldehyde in PBS for 15 min at room temperature and blocked and permeabilized for 1 h in PBS containing 0.3% Triton X-100, 1% BSA, 10% fetal bovine serum. […]
(§2) Cell samples were subjected to z-stack scanning with a total depth of 5 μm to comprehensively capture all 53BP1^FFR and γH2A.X IRIF within the cell nuclei, which were fluorescently labeled with DAPI. […] To assess the quantification of 53BP1^FFR and γH2A.X foci per nuclei, a customized CellProfiler (version 3.0)[68] pipeline was employed. […]

Assay [3] concerns 53BP1^FFR-CC IRIF in U2OS cells. In words: 53BP1FFR ionizing radiation-induced foci (IRIF) formation, immunofluorescence, CC mutant. Conditions: 1 Gy X-ray, different concentrations of UNC3474. Format: cell-based, Homo Sapiens.
Excerpt: as §1, §2

T1 sequence (Q12888 1481-1603 E1549C/E1567C): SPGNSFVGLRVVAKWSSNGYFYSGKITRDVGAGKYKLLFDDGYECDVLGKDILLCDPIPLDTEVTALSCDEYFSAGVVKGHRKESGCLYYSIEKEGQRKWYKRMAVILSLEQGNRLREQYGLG

With `CC(C)c1cccc(C(=O)NCCCNC(C)(C)C)c1` [UNC3474], the “affinity of reduced monomeric 53BP1TT-CC” value in assay [1] (with DTT (2 mM)) was “no affinity”. Further, the “effect on 1H-15N HSQC spectra of 53BP1TT-CC (disulfide-crosslinked dimer)” value in assay [1] (without DTT, 1:1 UNC3474:53BP1TT-CC molar ratio) is listed as “splitting of several NMR signals”. Further, in assay [2], the “53BP1FFR-PN IRIF” value is given as “no significant change”. Also, the “53BP1FFR-CC IRIF” value in assay [3] is given as “no significant change”.

The record behind these values is paper PMC10541411 (Nature Communications, 2023).
